Tests used:
[1] = tested on: Cochlear explants from newborn mice; experiment: Cochleatoxicity in vitro, hair cell loss in cochlear explants; format: cell-based; settings: for Hair cell count: 0.5 mM aminoglycoside for 24 h, epifluorescence microscopy; for inner and outer hair cells missing / lost: 0.5 mM, FIG. 1
Description: FIG. 1: Cochleatoxicity in vitro
(a) Dose-response relationship of drug-induced hair cell loss in cochlear explants. Hair cell loss was quantified along the entire length of the explant and plotted against drug concentration. %=% outer hair cells missing.
Cochlear explants from newborn mice were treated with 0.5 mM aminoglycoside compound for 24 h; subsequently hair cell damage was assessed by epifluorescence microscopy.

mitohybrid ribosomes = experiment: Ribosomal drug susceptibility (MIC) of recombinant bacteria; parameters: MIC, mitohybrid ribosomes: unit not given beside the values; settings: Table 7; 72 h incubation
cytohybrid ribosomes = experiment: as above; parameters: MIC, cytohybrid ribosomes: unit not given beside the values; settings: Table 7; 72 h incubation
E. coli = experiment: MIC against gram-negative bacteria; format: cell-based
Excerpt: Agents Chemother. 2003, 47:1496-1502.

[2] = tested on: clinical methicillin resistant Staphylococcus aureus (MRSA) isolates; experiment: MIC against clinical MRSA isolates, LB microdilution assay
Description: Activity was assessed by determination of minimal inhibitory concentrations (MIC), as described in Pfister et al., Antimicrob. […] Cultures from single colonies were grown in LB medium and used for MIC tests in a microtiter plate format. Starting cultures contained 200 μl of bacterial cells at an optical density of 0.025 at 600 nm, and the respective drug was added in twofold series of dilution.

[3] = General toxicity in guinea pigs; format: in vivo; settings: systemic, once daily for 14 days, monitored additional 14 days
Description: Guinea pigs received a systemic application of aminoglycosides once daily in the dosing indicated in Table 9 for 14 days and were then monitored for an additional 14 days.

bacterial ribosomes = experiment: Ribosomal drug susceptibility (MIC) of recombinant bacteria; parameters: MIC, bacterial ribosomes: unit not given beside the values; settings: Table 7; 72 h incubation
[4] = E. coli AG01, clin. isol. (Gm^S)
[5] = E. coli AG02, clin. isol (Gm^S)
[6] = E. coli AG03, clin. isol (Gm^R)
[7] = E. coli AG08, BM13/pIP055, resistance mechanism ANT(2″)
[8] = E. coli AG09, AAC(6′)-1B, resistance mechanism AAC(6′)
[9] = E. coli AG36, HB101/pAT197, resistance mechanism ANT(4′)
[10] = E. coli AG37, HB101/pAG21-1, resistance mechanism APH(3′)
[11] = MRSA AG042, strain 101-06R Gm^R

| Substance | Hair cell count [1] | inner and outer hair cells missing / lost [1] | MIC, mitohybrid ribosomes (mitohybrid ribosomes) | MIC, cytohybrid ribosomes (cytohybrid ribosomes) | MIC (E. coli; [4]) | MIC (E. coli; [5]) | MIC (E. coli; [6]) | MIC (E. coli; E. coli AG06, BM13) | MIC (E. coli; [7]) | MIC (E. coli; [8]) | MIC (E. coli; [9]) | MIC (E. coli; [10]) | MIC ([2]; MRSA AG038, strain 70-26S Gm^S) | MIC ([2]; MRSA AG040, strain 87-26S Gm^S) | MIC ([2]; MRSA AG041, strain 98-25S Gm^S) | MIC [2, 11] | MIC ([2]; MRSA AG043, strain 01-08R Gm^R) | MIC ([2]; MRSA AG044, strain 07-12R Gm^R) | MIC ([2]; MRSA AG045, strain 08-12R Gm^R) | MIC ([2]; MRSA AG046, strain 12-06R Gm^R) | other results |
| --- | --- | --- | --- | --- | --- | --- | --- | --- | --- | --- | --- | --- | --- | --- | --- | --- | --- | --- | --- | --- | --- |
| Gentamicin | almost all hair cells (inner and outer) missing | > 80% | 128 | 1024 | 4 to 8 µg/mL | 2 µg/mL | 256 to 512 µg/mL | 0.5 µg/mL | 16 µg/mL | 8 to 16 µg/mL | 0.5 µg/mL | 0.25 µg/mL | 0.5 µg/mL | 0.5 µg/mL | 0.5 µg/mL | 32 to 64 µg/mL | 32 to 64 µg/mL | 16 µg/mL | 16 µg/mL | ≧256 mg/l | MIC ([2]; MRSA AG047, strain 18-06R Gm^R): ≧256 mg/l; MIC ([2]; MRSA AG048, strain 20-06R Gm^R): ≧256 mg/l; MIC ([2]; MRSA AG049, strain 23-12R Gm^R): 16 µg/mL; MIC ([2]; MRSA AG050, strain 31-06R Gm^R): 128 µg/mL; MIC ([2]; MRSA AG051, strain 36-06R Gm^R): 128 µg/mL; MIC ([2]; MRSA AG052, strain 53-14I Gm^R): 16 to 32 µg/mL; MIC ([2]; MRSA AG053, strain 56-06R Gm^R): 64 µg/mL; observations (general toxicity) ([3]; 120 mg/kg base): normal weight gain; observations (general toxicity) ([3]; 140 mg/kg base): significant weight loss; observations (general toxicity) ([3]; 160 mg/kg base): 2 out of 3 died; MIC, bacterial ribosomes (bacterial ribosomes): 1 |
| Neomycin | almost all hair cells (inner and outer) missing | > 80% | 32 | 1024 | 8 to 16 µg/mL | 4 µg/mL | 4 µg/mL | 1 µg/mL | 2 to 4 µg/mL | 8 to 32 µg/mL | 32 µg/mL | >256 µg/mL | 0.5 to 1 µg/mL | 128 µg/mL | 0.5 to 1 µg/mL | 128 µg/mL | 1 to 4 µg/mL | 0.5 to 1 µg/mL | 0.5 to 1 µg/mL | >256 µg/mL | MIC (E. coli; E. coli AG07, BM13/pIP135, resistance mechanism AAC(3)): 4 µg/mL; MIC ([2]; MRSA AG047, strain 18-06R Gm^R): 256 µg/mL; MIC ([2]; MRSA AG048, strain 20-06R Gm^R): 256 µg/mL; MIC ([2]; MRSA AG049, strain 23-12R Gm^R): >256 µg/mL; MIC ([2]; MRSA AG050, strain 31-06R Gm^R): 64 µg/mL; MIC ([2]; MRSA AG051, strain 36-06R Gm^R): 64 µg/mL; MIC ([2]; MRSA AG052, strain 53-14I Gm^R): >256 µg/mL; MIC ([2]; MRSA AG053, strain 56-06R Gm^R): 0.5 to 1 µg/mL; MIC, bacterial ribosomes (bacterial ribosomes): 1 |
